Measured values from paper PMC4561889, “Geranylgeranylacetone selectively binds to the HSP70 of Helicobacter pylori and alters its coccoid morphology” (Scientific Reports, 2015).

Assays:
DnaK (H. pylori HSP70) = biological target: T1, DnaK (H. pylori HSP70) (Helicobacter pylori, UniProt P55994); assay: SPR (BIAcore […]), DnaK amine-coupled to CM5 chip; format: binding
T1 construct: full length cloned from genomic DNA of ATCC43504 in pCold I (vector His tag, cleavage not mentioned), E. coli BL21, Ni-NTA
T1 sequence (P55994 2-620): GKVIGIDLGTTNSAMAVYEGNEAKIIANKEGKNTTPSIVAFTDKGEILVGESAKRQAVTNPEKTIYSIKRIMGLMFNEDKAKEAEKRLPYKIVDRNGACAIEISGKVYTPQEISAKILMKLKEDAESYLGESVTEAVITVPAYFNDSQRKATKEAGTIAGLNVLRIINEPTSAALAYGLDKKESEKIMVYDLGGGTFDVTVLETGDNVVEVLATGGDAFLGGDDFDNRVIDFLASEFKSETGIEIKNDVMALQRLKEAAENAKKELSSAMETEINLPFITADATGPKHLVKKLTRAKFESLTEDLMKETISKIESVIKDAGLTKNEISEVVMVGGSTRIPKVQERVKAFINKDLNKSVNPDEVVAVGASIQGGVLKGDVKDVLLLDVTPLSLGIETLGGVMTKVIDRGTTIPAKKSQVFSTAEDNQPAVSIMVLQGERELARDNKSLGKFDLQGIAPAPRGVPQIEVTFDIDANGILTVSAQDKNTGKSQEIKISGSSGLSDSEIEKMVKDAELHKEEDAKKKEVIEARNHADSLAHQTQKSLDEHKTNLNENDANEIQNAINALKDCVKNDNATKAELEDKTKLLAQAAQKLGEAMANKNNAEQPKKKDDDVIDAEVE

HSP70 (human HSP70) [1] = biological target: T2, HSP70 (human HSP70) (Homo sapiens, UniProt P0DMV8); assay: SPR (BIAcore […]), HSP70 amine-coupled to CM5 chip; format: binding
T2 construct: gene HSPA1A; full-length cDNA (from R. Morimoto) in pCold I (vector His tag, cleavage not mentioned); forward primer encodes N-terminus MAKAAAV

HSP70 (human HSP70) [2] = biological target: T2, HSP70 (human HSP70); assay: citrate synthase thermal aggregation (light scattering, […] nm); format: biochemical; details: 50 mM HEPES pH 7.4, 50 C; 50 μM HSP70, 0.25 μM citrate synthase, 5 mM GGA

T2 sequence (P0DMV8 whole entry): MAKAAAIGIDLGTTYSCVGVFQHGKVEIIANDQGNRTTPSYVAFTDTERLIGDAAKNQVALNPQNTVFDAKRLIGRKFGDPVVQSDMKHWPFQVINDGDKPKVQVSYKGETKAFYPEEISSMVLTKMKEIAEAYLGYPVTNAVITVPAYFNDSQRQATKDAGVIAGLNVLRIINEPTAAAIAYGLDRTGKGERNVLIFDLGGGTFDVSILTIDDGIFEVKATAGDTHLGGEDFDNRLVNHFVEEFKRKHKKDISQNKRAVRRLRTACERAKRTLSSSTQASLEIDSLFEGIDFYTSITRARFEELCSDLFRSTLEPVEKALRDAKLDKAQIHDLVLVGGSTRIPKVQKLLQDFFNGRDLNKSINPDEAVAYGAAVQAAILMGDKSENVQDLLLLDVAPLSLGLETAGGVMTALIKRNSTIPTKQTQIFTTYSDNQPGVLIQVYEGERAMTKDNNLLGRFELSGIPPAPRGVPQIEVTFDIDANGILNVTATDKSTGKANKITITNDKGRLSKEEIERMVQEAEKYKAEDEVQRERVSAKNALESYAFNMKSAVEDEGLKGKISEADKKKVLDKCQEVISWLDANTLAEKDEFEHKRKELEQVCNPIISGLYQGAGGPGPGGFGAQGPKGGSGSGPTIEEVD

CC(=O)CC/C=C(\C)CC/C=C(\C)CC/C=C(\C)CCC=C(C)C [GGA, 6,10,14,18-tetramethyl-5,9,13,17-nonadecatetraen-2-one]
Kd (DnaK (H. pylori HSP70)): 0.0755 µM
Kd (HSP70 (human HSP70) [1]): 2 µM
% reduction of chaperone activity at 5 mM (HSP70 (human HSP70) [2]): 15%
